Several values for one entry are separate records, joined by “and”; a condition that tells them apart may be missing. Equal entries are not always repeated. Where two headings read alike, the source gives them in different places.
Assays:
[1] = biological target: fl-HDAC4 (Homo sapiens, UniProt P56524); experiment: HDAC4 enzymatic assay with Lys; type: biochemical; settings: Lys(TFA)-AMC substrate
[2] = biological target: T1, Human Aryl Hydrocarbon Receptor (AHR) (Homo sapiens, UniProt P35869); experiment: Cell-based luciferase reporter gene assay driven by AHR-responsive promoter
T1 sequence (P35869 11-848): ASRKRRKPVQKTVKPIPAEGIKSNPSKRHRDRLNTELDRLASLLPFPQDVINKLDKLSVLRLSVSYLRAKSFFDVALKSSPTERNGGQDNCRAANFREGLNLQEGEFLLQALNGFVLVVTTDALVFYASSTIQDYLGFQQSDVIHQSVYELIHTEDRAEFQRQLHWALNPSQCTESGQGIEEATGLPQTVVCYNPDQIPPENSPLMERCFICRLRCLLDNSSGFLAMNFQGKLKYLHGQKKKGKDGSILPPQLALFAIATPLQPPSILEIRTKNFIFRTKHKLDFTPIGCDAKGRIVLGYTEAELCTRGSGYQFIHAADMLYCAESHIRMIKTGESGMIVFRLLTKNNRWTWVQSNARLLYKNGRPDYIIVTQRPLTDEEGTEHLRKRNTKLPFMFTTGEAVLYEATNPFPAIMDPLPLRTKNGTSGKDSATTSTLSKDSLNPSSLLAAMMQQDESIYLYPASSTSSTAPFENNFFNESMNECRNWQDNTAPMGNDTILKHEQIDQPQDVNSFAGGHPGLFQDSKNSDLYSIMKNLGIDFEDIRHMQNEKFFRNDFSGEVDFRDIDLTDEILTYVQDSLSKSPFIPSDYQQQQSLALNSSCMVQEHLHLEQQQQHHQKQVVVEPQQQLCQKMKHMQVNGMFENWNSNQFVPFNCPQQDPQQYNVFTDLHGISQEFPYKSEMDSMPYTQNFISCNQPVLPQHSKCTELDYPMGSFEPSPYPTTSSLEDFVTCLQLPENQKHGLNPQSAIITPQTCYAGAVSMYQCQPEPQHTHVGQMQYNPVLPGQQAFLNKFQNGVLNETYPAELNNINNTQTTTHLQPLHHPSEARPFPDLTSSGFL

[3] = test system: LNCaP cells; experiment: In vitro growth of LNCaP parental vs HDAC4 KD cells, normoxia vs hypoxia; type: cell-based, human; settings: TasQ 10 μM
[4] = test system: CWR22-RH human prostate cancer PDXs; experiment: In vivo growth of CWR22-RH PDX in castrate NSG mice; set-up: species or system human xenograft in NSG mice
[5] = test system: thymus; experiment: AHR agonist induced thymus regression in FVB male mice; type: in vivo; settings: for thymus weight: oral 10 mg/kg/d for 14 days, vehicle 72 +/− 3 (>70)
[6] = test system: liver Cyp1a1; experiment: Liver Cyp1a1 induction in mice; type: in vivo
[7] = test system: LvCaP-3 human prostate cancer PDXs; experiment: In vivo growth of LvCaP-3 PDX in castrate mice; set-up: species or system human xenograft in mice; settings: oral 10 mg/kg/d
[8] = biological target: fl-NCoR1 protein (Homo sapiens, UniProt O75376); experiment: SPR: TasQ in solution binding to immobilized fl-NCoR1
fl-NCoR1 protein, sequence (O75376 whole entry): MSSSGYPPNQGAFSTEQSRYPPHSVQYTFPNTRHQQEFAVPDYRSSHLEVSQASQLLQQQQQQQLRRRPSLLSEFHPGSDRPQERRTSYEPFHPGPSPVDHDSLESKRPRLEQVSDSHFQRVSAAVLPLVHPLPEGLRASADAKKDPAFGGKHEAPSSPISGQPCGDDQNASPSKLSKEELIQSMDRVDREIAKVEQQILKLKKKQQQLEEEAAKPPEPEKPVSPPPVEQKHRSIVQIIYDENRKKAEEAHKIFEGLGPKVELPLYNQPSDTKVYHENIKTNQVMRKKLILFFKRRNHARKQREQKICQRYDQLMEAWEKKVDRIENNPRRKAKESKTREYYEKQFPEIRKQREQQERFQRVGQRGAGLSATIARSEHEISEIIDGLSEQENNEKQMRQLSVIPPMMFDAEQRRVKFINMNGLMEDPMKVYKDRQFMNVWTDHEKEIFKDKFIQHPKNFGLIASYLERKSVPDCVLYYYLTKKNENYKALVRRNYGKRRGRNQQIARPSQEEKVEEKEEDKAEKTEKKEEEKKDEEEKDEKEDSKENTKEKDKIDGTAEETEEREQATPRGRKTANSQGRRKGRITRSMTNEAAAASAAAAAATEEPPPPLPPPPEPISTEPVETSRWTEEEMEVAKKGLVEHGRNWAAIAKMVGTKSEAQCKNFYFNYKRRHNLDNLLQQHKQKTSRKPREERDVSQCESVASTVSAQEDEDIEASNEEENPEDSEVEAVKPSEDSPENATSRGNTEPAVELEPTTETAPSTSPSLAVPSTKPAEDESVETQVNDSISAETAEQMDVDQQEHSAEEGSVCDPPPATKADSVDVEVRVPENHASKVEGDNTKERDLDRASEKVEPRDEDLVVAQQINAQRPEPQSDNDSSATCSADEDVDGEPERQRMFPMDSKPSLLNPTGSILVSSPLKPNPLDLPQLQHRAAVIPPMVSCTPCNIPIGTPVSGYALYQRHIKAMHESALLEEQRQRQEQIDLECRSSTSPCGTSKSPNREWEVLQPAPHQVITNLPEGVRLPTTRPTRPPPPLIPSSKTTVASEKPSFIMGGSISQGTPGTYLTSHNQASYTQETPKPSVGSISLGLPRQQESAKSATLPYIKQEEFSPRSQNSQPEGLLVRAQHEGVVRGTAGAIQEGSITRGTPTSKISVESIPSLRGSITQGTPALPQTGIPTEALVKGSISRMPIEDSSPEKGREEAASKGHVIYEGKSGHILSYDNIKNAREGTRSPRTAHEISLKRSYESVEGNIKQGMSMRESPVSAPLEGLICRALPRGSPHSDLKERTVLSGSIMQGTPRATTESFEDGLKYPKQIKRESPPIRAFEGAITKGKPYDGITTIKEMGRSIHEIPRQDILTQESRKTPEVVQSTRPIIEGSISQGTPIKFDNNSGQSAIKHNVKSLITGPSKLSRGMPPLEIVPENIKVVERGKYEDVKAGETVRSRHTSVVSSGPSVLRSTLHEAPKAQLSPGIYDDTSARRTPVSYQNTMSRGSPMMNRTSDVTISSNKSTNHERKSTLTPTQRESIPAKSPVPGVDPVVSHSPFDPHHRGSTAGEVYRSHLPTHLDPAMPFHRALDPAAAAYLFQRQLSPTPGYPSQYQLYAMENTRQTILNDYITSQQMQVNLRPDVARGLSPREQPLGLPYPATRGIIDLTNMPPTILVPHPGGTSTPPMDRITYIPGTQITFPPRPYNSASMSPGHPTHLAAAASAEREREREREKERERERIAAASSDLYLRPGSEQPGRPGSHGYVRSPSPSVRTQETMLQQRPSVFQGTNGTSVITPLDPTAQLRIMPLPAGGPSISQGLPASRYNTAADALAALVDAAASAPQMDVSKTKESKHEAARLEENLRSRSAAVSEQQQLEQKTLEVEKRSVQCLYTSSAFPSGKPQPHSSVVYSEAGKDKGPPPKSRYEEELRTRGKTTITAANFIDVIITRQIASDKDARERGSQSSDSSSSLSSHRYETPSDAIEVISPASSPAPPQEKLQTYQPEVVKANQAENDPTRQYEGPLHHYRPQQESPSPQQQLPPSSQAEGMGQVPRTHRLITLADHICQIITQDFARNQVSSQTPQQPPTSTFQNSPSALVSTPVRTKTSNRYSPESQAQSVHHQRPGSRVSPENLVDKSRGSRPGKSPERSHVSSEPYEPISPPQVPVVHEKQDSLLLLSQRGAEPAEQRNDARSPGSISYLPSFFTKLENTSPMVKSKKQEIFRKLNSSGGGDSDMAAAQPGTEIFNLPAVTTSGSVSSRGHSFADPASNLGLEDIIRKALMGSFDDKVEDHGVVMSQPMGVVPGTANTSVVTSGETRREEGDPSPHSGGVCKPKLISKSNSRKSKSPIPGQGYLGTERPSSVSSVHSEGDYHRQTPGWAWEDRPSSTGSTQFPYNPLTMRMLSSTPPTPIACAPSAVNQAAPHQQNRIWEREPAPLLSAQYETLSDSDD

[9] = biological target: fl-wild-type HDAC4 (Homo sapiens, UniProt P56524); experiment: SPR competition: TasQ in solution vs immobilized TasQ for fl-wild-type HDAC4; type: binding
fl-wild-type HDAC4, sequence (P56524 whole entry): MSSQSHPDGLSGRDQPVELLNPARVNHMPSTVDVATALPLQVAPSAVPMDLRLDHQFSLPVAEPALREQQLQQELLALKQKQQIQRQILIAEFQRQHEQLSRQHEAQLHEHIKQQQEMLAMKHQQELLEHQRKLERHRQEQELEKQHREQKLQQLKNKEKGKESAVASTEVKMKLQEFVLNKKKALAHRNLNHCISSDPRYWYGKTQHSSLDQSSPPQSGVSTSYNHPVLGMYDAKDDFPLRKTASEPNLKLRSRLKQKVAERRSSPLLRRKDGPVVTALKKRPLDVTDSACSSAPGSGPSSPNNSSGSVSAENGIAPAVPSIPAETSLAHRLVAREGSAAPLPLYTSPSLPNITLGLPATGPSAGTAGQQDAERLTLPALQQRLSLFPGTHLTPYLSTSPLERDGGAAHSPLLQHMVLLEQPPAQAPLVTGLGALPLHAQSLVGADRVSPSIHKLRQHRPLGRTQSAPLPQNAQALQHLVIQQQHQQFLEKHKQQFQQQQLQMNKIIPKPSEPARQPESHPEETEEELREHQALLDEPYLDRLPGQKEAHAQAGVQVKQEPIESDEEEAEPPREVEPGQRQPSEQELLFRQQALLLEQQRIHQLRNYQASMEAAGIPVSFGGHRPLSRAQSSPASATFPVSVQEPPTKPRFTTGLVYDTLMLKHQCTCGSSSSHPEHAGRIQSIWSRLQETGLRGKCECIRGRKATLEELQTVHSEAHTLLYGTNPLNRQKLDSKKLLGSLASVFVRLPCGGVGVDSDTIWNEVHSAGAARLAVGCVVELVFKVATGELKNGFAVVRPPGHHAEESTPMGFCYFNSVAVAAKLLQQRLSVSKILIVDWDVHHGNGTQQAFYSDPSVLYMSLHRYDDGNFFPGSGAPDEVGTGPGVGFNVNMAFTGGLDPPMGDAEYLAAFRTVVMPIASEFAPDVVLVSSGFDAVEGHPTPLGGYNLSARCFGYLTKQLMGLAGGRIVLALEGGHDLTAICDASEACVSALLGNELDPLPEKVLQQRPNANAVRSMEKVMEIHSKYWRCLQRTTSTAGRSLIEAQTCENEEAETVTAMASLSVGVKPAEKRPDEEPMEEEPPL

[10] = biological target: fl-R681A/R798A double mutant HDAC4 protein (Homo sapiens, UniProt P56524, R681A/R798A); experiment: SPR competition: TasQ in solution vs immobilized TasQ for mutant HDAC4; type: binding
fl-R681A/R798A double mutant HDAC4 protein, sequence (P56524 whole entry R681A/R798A): as the sequence (P56524 whole entry) above, with R681A, R798A counted along it

[11] = test system: human umbilical vein endothelial cells (HUVECs); experiment: Three dimensional; type: cell-based; settings: CM-supplemented 3D cultures, 10 μM
[12] = test system: CWR-22Rv1 xenografts; type: in vivo, human xenograft in mice; settings: oral 10 mg/kg/d
[13] = test system: CWR22-RH PDXs; experiment: RNA sequencing of in vivo growing CWR22-RH PDX; set-up: species or system human xenograft in mice; settings: oral 10 mg/kg/d vs vehicle, castrate hosts
[14] = cited from earlier work
[15] = test system: metastatic castration-resistant prostate cancer (mCRPC); settings: cited from earlier work
[16] = test system: prostate cancer xenografts; settings: oral 10 mg/kg/d, cited from earlier work
[17] = test system: HIF-1α protein; settings: daily oral 10 mg/kg/d; cited from earlier work
[18] = test system: prostate cancer xenografts; settings: cited from earlier work
[19] = cited from earlier work; remark: listed apart in the source
[20] = biological target: human AHR (Homo sapiens, UniProt P35869); experiment: Photo-affinity label; settings: competitive PAL AHR binding assay
[21] = Serum pharmacokinetics after oral gavage in mice; type: in vivo
[22] = biological target: nuclear MEF2/HDAC4/NCoR1 (Homo sapiens, UniProt P56524); experiment: Nuclear NCoR1 immunoprecipitated with MEF-2 in CWR-22Rv1 cells under hypoxia; type: cell-based; settings: discussion summary
nuclear MEF2/HDAC4/NCoR1, sequence (P56524 whole entry): as the sequence (P56524 whole entry) above

[23] = test system: 68 kinases; experiment: Targeted kinase screen; type: biochemical; settings: 10 μM
[24] = Water solubility; type: physicochemical
[25] = biological target: immobilized fl-HDAC4 (Homo sapiens, UniProt P56524); experiment: SPR: compound in solution binding to immobilized fl-HDAC4; settings: at >30 μM in solution, Zn2+ present
immobilized fl-HDAC4, sequence (P56524 whole entry): as above

[26] = phase 1B, TasQ combined with cabazitaxel, RECIST

fl-HDAC4, sequence (P56524 whole entry): as above

O=C(c1ccc(C(=O)C(F)(F)F)s1)N1CCn2c(-c3ccccc3)cnc2C1 [TFT-PIP]
effect on enzymatic activity [1]: inhibited

COc1cccc2c1c(O)c(C(=O)N(C)c1ccc(C(F)(F)F)cc1)c(=O)n2C [TasQ, 4-hydroxy-5-methoxy-N,1-dimethyl-2-oxo-N-[(4-trifluoromethyl)phenyl]-1,2-dihydroquinoline-3-caboxamide]
EC50 [2]: 1 µM
effect on cells [3]: the cells die
oral daily dose giving maximal significant growth inhibition ([4]; castrate NSG mice, 3-week treatment): ≥ 5 mg/kg/day
thymus weight [5]: 41.6 ± 6 mg
induction of liver Cyp1a1 ([6]; oral 10 mg/kg, alone and in combination with B(a)P): > 50 fold
inhibition of growth at end of study (fraction) ([7]; alone or in combination with B(a)P): ~ 2/3
binding to immobilized fl-NCoR1 [8]: no detectable binding
effect on enzymatic activity [1]: did not inhibit
EC50 [9]: 1 µM
displacement of mutant HDAC4 from immobilized TasQ [10]: not competitively displaced
sprouting [11]: sprouting prevented
growth inhibition ([12]; dominant-positive mutant HIF-1α tumors): < 25%
growth inhibition ([12]; wild type cells): > 80%
AGR2, AHR Target Genes (Fold Increases by TasQ) [13]: 5.5 fold
AHR, AHR Target Genes (Fold Increases by TasQ) [13]: 3.0 fold
ALDOC, HIF-1a Target Genes (Fold Decrease by TasQ) [13]: −1.4 fold
AR, AR Target Genes (Fold Decrease by TasQ) [13]: −2.0 fold
BNIP3, HIF-1a Target Genes (Fold Decrease by TasQ) [13]: −1.9 fold
CDC6, Proliferation Target Genes (Fold Decrease by TasQ) [13]: −1.5 fold
CDT1, Proliferation Target Genes (Fold Decrease by TasQ) [13]: −2.2 fold
CYP1B1, AHR Target Genes (Fold Increases by TasQ) [13]: 10.0 fold
DTYMK, Proliferation Target Genes (Fold Decrease by TasQ) [13]: −1.6 fold
E2F1, Proliferation Target Genes (Fold Decrease by TasQ) [13]: −2.0 fold
GDF15, AHR Target Genes (Fold Increases by TasQ) [13]: 2.3 fold
HILPDA, HIF-1a Target Genes (Fold Decrease by TasQ) [13]: −1.7 fold
IGF1, HIF-1a Target Genes (Fold Decrease by TasQ) [13]: −11.0 fold
IGFBP2, HIF-1a Target Genes (Fold Decrease by TasQ) [13]: −1.8 fold
IGFBP5, HIF-1a Target Genes (Fold Decrease by TasQ) [13]: −18.0 fold
KLKP1, AR Target Genes (Fold Decrease by TasQ) [13]: −2.3 fold
LDHA, HIF-1a Target Genes (Fold Decrease by TasQ) [13]: −1.5 fold
LOX, HIF-1a Target Genes (Fold Decrease by TasQ) [13]: −4.0 fold
MCM2, Proliferation Target Genes (Fold Decrease by TasQ) [13]: −1.9 fold
MCM3, Proliferation Target Genes (Fold Decrease by TasQ) [13]: −1.6 fold
MCM5, Proliferation Target Genes (Fold Decrease by TasQ) [13]: −2.0 fold
MKI67, Proliferation Target Genes (Fold Decrease by TasQ) [13]: −1.7 fold
NKX3.1, AR Target Genes (Fold Decrease by TasQ) [13]: −2.3 fold
NQOI, AHR Target Genes (Fold Increases by TasQ) [13]: 2.9 fold
P4HA1, HIF-1a Target Genes (Fold Decrease by TasQ) [13]: −1.8 fold
PDK1, HIF-1a Target Genes (Fold Decrease by TasQ) [13]: −1.7 fold
PTN, HIF-1a Target Genes (Fold Decrease by TasQ) [13]: −6.1 fold
SLC45A3, AR Target Genes (Fold Decrease by TasQ) [13]: −3.7 fold
TIPARP, AHR Target Genes (Fold Increases by TasQ) [13]: 3.4 fold
TMPRSS2, AR Target Genes (Fold Decrease by TasQ) [13]: −1.9 fold
TNC, HIF-1a Target Genes (Fold Decrease by TasQ) [13]: −2.5 fold
TTR, HIF-1a Target Genes (Fold Decrease by TasQ) [13]: −3.8 fold
VEGFB, HIF-1a Target Genes (Fold Decrease by TasQ) [13]: −1.5 fold
BHLHE41, MEF-2 Target Genes (Fold Decrease by TasQ) ([13]; section title: upregulation): 2.9 fold
CA12, MEF-2 Target Genes (Fold Decrease by TasQ) ([13]; section title: upregulation): 2.7 fold
CAPN2, MEF-2 Target Genes (Fold Decrease by TasQ) ([13]; section title: upregulation): 1.6 fold
CEACAM1, MEF-2 Target Genes (Fold Decrease by TasQ) ([13]; section title: upregulation): 1.8 fold
EDN1, MEF-2 Target Genes (Fold Decrease by TasQ) ([13]; section title: upregulation): 15.0 fold
NR4A1, MEF-2 Target Genes (Fold Decrease by TasQ) ([13]; section title: upregulation): 1.4 fold
NR4A2, MEF-2 Target Genes (Fold Decrease by TasQ) ([13]; section title: upregulation): 1.8 fold
S100P, MEF-2 Target Genes (Fold Decrease by TasQ) ([13]; section title: upregulation): 5.7 fold
THB5, MEF-2 Target Genes (Fold Decrease by TasQ) ([13]; section title: upregulation): 8.0 fold
serum nadir ([14]; oral 5 mg/kg/d, at 24 hrs): 1.08 ± 0.21 µM
blood concentration maintained ([14]; oral 10 mg/kg/d): > 1000 nM
patients with complete or partial response (CR/PR) [15, 26]: 12%
patients with stable disease [15, 26]: 48%
overall survival (OS) ([15]; phase III, 1 mg/day): not significantly enhanced
reduction of risk of radiographic progression or death vs. placebo ([15]; phase III, daily oral): 36%
improvement of median progression-free survival (PFS) ([15]; randomized phase II, mCRPC progressing on ADT): 4.3 months
pO2 in the TME ([16]; lowered from >3 mmHg): 1.4 +/− 1.0 mmHg
enhancement of hypoxia [16]: > 2 fold
lowering of HIF-1α protein in tumors [17]: > 50%
fold more potent compared to Linomide ([18]; based on serum drug level): ≥ 100 fold
daily oral dosing required in mice [18]: > 5 mg/kg/day
fold increase in anti-tumor efficacy compared to Linomide [18]: > 25 fold
daily oral dosing required for maximal therapeutic activity ([18]; preclinical): ≥ 5 mg/kg
serum concentration to be maintained for maximal therapeutic activity ([18]; preclinical): > 2 µM
plasma concentration maintained ([19]; 0.5 mg/d): 230 ± 30 nM
steady-state plasma level ([19]; 1 mg/day): 0.42 ± 0.05 µM
MTD when combined with cabazitaxel and prednisone ([19]; phase 1B): 0.5 mg/day
maximum tolerated dose (MTD) ([19]; phase I, oral, after dose escalation over 4–6 weeks): 1 mg/day
dose-limiting toxicity ([19]; phase I): sinus tachycardia and asymptomatic elevation in amylase

c1ccc2c(c1)cc1ccc3cccc4ccc2c1c34 [B(a)P, benzo[a]pyrene]
thymus weight [5]: 27 ± 8 mg
therapeutic efficacy [7]: completely lacks therapeutic efficacy

COC(=O)c1c(O)c2c(OC)cccc2n(C)c1=O [ESATA-2]
growth inhibitor (GI) activity ([4]; oral 10 mg/kg/d over 3 weeks, castrate NSG mice): no GI activity

COc1cccc2c1c(O)c(C(=O)N(c1ccc(C(F)(F)F)cc1)C1CCCCC1)c(=O)n2C [ESATA-20]
fold lower binding affinity than TasQ [20]: 10 fold
fold lower AHR agonism than TasQ ([2]; cell-based AHR-promoter assay): 10 fold and ~ 10 fold
EC50 ([2]; read-out: AHR agonist EC50, human cell-based luciferase reporter): 10 µM
anti-cancer efficacy ([4]; 10 mg/kg/d oral): same significant maximal anti-cancer efficacy as TasQ
serum concentration at which maximal anti-prostate cancer efficacy is produced ([4]; in vivo): < 2 µM
fold lower bioavailability than TasQ ([21]; 10 mg/kg oral, DMSO/HPCD vehicle): 5.5 fold
alpha half-life for tissue distribution ([21]; mouse, in vivo): 3 h
beta half-life for serum elimination ([21]; mouse, in vivo): 10 to 12 h
drug bound to serum proteins ([21]; mouse, in vivo): > 98%
thymus regression ([5]; oral, even at 30 mg/kg/d): lack of induction
induction of liver Cyp1a1 ([6]; oral, even at 30 mg/kg/d): lack of induction
fold more potent HDAC4 inhibitor (vs TasQ) [22]: ≥ 5 fold
change in activity in any of the 68 kinases [23]: < 15%
water solubility [24]: less water soluble than TasQ

CN(C(=O)c1c(O)c2ccccc2n(C)c1=O)c1ccccc1 [Linomide, 4-hydroxy-N,1-dimethyl-2-oxo-N-phenyl-1,2-dihydroquinoline-3-carboxamide]
share of immobilized fl-HDAC4 protein bound [25]: 10–15%
side effects in phase III trials ([19]; chronic doses of ≤0.1 mg/kg): several cases of pericarditis and neuropathy

From PMC10559933 (The Prostate, 2023)
